Measured values from patent US20060134119A1, “Drugs containing galectin 9” (priority 2003, published 2006).

Experiments:
BALL-1 = assay: Apoptosis analysis by PI method in BALL-1 cells; type: cell-based
Experimental: (§1) MOLT-4 (T cell), Jurkat (T cell), BALL-1 (B cell), THP-1 (acute monocytic leukemia derived cell), and HL60 (acute promyelotic leukemia derived cell) cells were obtained from American Type Culture Collection (ATCC). All the cell lines were maintained in an RPMI-1640 medium (Sigma, St. Louis, US) supplemented with 10% FCS in 5% Co2 at 37° C. Lactose (30 mM) was added to the culture medium to inhibit Gal-9 activity. The same concentration of sucrose was used as a control.
Cells that underwent apoptosis induction were centrifuged at 4° C. for 5 min at 1,000 rpm, and the cell pellet was resuspended in PBS (300 μL), and adjusted to a final concentration of 70% by gradually adding 100% cold ethanol (700 μL) to the suspended cells with vortexing. […] Stained cells were analyzed by flow cytometry (Sandstrom, K. et al., J Immunol Methods, 240: 55 (2000) and Zhang L. et al., Cancer Lett, 142: 129 (1999)) after removing aggregated cells through a nylon mesh and increasing the cell volume with PBS. […]
Apoptotic activity was measured by the PI method. […] Subsequently, incubation with PI leads to a reduction in the fluorescence intensity of apoptotic cells. Apoptosis was examined by the percentage of the cells wherein their fluorescence intensity was reduced. […]

CD4+ T cells = assay: Apoptosis induction in peripheral blood CD4+ T cells, resting or anti-CD3 Ab-activated; type: cell-based, human; conditions: galectin (+), 1 μM rGal-9
Experimental: To prepare a well plate coated with anti-CD3 Ab, 24 well palates were incubated with TBS solution (pH 8.0) containing 3 μg/mL anti-CD3 Ab (Inmunotech, Marseille, France) per well at 4° C. overnight, and each well was washed with PBS after removing anti-CD3 Ab solution.
Mononuclear leukocyte fractions were isolated from heparinized blood using HISTOPAQUE (Registered trademark, SIGMA). CD4-Positive Isolation Kit (DYNAL, Oslo, Norway) was used for isolation of CD4+ T cells and Dynabeads M-450 CD8 (Registered trademark, DYNAL, Oslo, Norway) for isolation of CD8+ T cells, respectively, according to the manufacturer's instructions.
To activate T cells, CD4+ or CD8+ cells at 1×10^6 cells/mL in an RPMI-1640 medium containing 10% FCS were incubated on the plate coated with anti-CD3 Ab for 20 to 24 hr at 37° C. in a 5% CO2 incubator, and incubated with rGal-9 [(His)6-Gal-9(S)] at 37° C. in a 5% CO2 incubator. Then apoptosis assay was conducted as described in (c). That is, cells were incubated with 50 μg/mL PI (SIGMA) at 37° C. for 10 min in the dark. Stained cells were analyzed by flow cytometry (Sandstrom, K. et al., J Immunol Methods, 240: 55 (2000) and Zhang L. et al., Cancer Lett, 142: 129 (1999)).
Apoptosis assay was also conducted for non-activated (resting) T cells as described above after incubating them with rGal-9 [(His)6-Gal-9(S)] at 37° C. in a 5% Co2 incubator.
For comparison, galectin-1 and -3 treated cells were analyzed.
Next, apoptosis induction by Gal-9 in human peripheral blood T cells was examined. T cells were separated into CD4+ and CD8+ T cells followed by incubation in the presence or absence of anti-CD3 Ab. Resting T cells and anti-CD3 Ab-activated T cells were incubated with 1 μM rGal-9.

HMC-1 = assay: Apoptosis analysis by PI method in HMC-1 cells; type: cell-based; conditions: incubation with galectin-9 at least 48 hr or more
Experimental: (§2) Apoptotic activity was measured by the PI method. When cells are incubated with galectin-9, washed, then subjected to alcohol-fixation, and fragmented DNAs flow out of the cell. Subsequently, incubation with PI leads to a reduction in the fluorescence intensity of apoptotic cells. Apoptosis was examined by the percentage of the cells wherein their fluorescence intensity was reduced. […] This induction was at the same level as H2O2 (hydrogen peroxide solution) that was used as a positive control. In addition, the same results were obtained by another method for examining apoptosis, TUNEL assay.

Jurkat T cells = conditions: 16 hr incubation with 1 mM galectin-9, PI, FACS
Experimental: (§3) Cytotoxicities in Jurkat T cells, K-562 leukemic cells, and normal lymphocytes were measured by flow cytometry analysis using PI. That is, PI invades into the damaged target cells when PI is added for the last 15 min of 16 hr incubation with 1 mM galectin-9. Fluorescence generated by PI is measured by FACS. Untreated cells were used as a negative control group, formalin-fixed cells as a 100% dead cell group, and H2O2 (hydrogen peroxide solution)-treated cells as a positive control group, respectively.

normal lymphocytes = conditions: Normal Lymphocyte; 16 hr incubation with 1 mM galectin-9; PI, FACS
Experimental: as §3

K-562 leukemic cells = conditions: 16 hr incubation with 1 mM galectin-9, PI, FACS
Experimental: as §3

[1] = tested on: malignant melanoma cell line MM-RU; assay: Apoptosis analysis by PI method in malignant melanoma cell line MM-RU; type: cell-based, human; conditions: incubated with galectin-9 for 72 hr, FIG. 10
Experimental: as §2

MOLT-4 cells = assay: Apoptosis analysis by PI method in MOLT-4 cells; type: cell-based, human
Experimental: as §1
Cells that underwent apoptosis induction were centrifuged at 4° C. for 5 min at 1,000 rpm, and the cell pellet was resuspended in PBS (300 μL), and adjusted to a final concentration of 70% by gradually adding 100% cold ethanol (700 μL) to the suspended cells with vortexing. Cells were fixed by incubation at 4° C. for 30 min, and centrifuged at 4° C. for 5 min at 1,000 rpm after adding PBS (1 mL), and the cell pellet was resuspended in PBS (440 μL). Cells were incubated with ribonuclease A (10 μL; the final concentration 50 μg/mL, Sigma, St. Louis, Mo., US) at 37° C. for 30 min, and with 2.5 mg/mL propidium iodide (4 μL; the final concentration of PI 20 μg/mL, Sigma) at 4° C. for 10 min in the dark. Stained cells were analyzed by flow cytometry (Sandstrom, K. et al., J Immunol Methods, 240: 55 (2000) and Zhang L. et al., Cancer Lett, 142: 129 (1999)) after removing aggregated cells through a nylon mesh and increasing the cell volume with PBS.
(3) Cultured Cell Lines Were Incubated With rGal-9 for the Appropriate Length of Time, 24 hr for Instance. Apoptosis Analysis was Conducted by the Above-Described PI Method (1).
as §2

MM-RU = assay: Induction of cell aggregation in MM-RU; type: cell-based, human; conditions: for aggregation: FIG. 14
Experimental: Recombinant galectin-9 prepared via gene transfer into E. coli was added to MM-RU exogenously, and the efficacy of galectin-9 was then examined. As a result, galectin-9 induced aggregation of MM-RU at the concentration of 0.1 μM or higher. In addition, the galectin-9 efficacy was concentration-dependent, and significant between 0.3-1.0 μM.

[2] = recombinant galectin-9 added exogenously

Galectin-9: Recombinant human galectin-9 expressed in E. coli and purified on lactose-agarose
apoptosis induction, Gal9 (+) (BALL-1; BALL-1, incubation with galectin-9 at least 48 hr or more): 26.0
apoptosis induction (BALL-1; rGal-9 1 μM, 24 hr, FIG. 3): induced
apoptosis induction, CD4 (CD4+ T cells; CD3 (+) cells activated on anti-CD3 Ab-coated plates): 41.7
apoptosis induction, CD4 (CD4+ T cells; CD3 (−) untreated resting cells): 10.8
apoptosis induction, Gal9 (+) (HMC-1): 26.2
cytotoxicity, 16 hours (Jurkat T cells): 46.2
cytotoxicity, 16 hours (normal lymphocytes): 2.47
cytotoxicity, 16 hours (K-562 leukemic cells): 23.4
apoptosis induction [1]: strongly induced
apoptosis induction, Gal9 (+) (MOLT-4 cells; MOLT4, incubation with galectin-9 at least 48 hr or more): 34.5
apoptosis induction, time and dose dependence (MOLT-4 cells; PI method): time-dependent and dose-dependent
apoptosis induction (MOLT-4 cells; rGal-9 1 μM, 24 hr, FIG. 3): induced
PI-stained cells, which underwent apoptosis (MOLT-4 cells; rGal-9 1 μM, PI method, FIG. 1A, PBS control 14.8%): 34.5%
aggregation (MM-RU; 2 hr after addition): aggregation was observed
aggregation (MM-RU; 12 hr after addition): more intensive aggregation
concentration at which aggregation of MM-RU was induced (MM-RU; [2]): ≥ 0.1 µM
concentration at which the efficacy was significant (MM-RU; [2]): 0.3 to 1.0 µM
